This is an account of results in US20210379056A1, “SUBSTITUTED PYRAZOLE FUSED RING DERIVATIVE, PREPARATION METHOD THEREFOR, AND APPLICATION THEREOF” (Applied Pharmaceutical Science, Inc., priority 2018, published 2021).

Molecules are shown by their SMILES. Structures can show the parent of a compound that is named as a salt.

The target in one experiment is T1, Ret wt (Homo sapiens, UniProt P07949).
T1 construct: purchased Invitrogen PV3082
T1 sequence (P07949 29-1114): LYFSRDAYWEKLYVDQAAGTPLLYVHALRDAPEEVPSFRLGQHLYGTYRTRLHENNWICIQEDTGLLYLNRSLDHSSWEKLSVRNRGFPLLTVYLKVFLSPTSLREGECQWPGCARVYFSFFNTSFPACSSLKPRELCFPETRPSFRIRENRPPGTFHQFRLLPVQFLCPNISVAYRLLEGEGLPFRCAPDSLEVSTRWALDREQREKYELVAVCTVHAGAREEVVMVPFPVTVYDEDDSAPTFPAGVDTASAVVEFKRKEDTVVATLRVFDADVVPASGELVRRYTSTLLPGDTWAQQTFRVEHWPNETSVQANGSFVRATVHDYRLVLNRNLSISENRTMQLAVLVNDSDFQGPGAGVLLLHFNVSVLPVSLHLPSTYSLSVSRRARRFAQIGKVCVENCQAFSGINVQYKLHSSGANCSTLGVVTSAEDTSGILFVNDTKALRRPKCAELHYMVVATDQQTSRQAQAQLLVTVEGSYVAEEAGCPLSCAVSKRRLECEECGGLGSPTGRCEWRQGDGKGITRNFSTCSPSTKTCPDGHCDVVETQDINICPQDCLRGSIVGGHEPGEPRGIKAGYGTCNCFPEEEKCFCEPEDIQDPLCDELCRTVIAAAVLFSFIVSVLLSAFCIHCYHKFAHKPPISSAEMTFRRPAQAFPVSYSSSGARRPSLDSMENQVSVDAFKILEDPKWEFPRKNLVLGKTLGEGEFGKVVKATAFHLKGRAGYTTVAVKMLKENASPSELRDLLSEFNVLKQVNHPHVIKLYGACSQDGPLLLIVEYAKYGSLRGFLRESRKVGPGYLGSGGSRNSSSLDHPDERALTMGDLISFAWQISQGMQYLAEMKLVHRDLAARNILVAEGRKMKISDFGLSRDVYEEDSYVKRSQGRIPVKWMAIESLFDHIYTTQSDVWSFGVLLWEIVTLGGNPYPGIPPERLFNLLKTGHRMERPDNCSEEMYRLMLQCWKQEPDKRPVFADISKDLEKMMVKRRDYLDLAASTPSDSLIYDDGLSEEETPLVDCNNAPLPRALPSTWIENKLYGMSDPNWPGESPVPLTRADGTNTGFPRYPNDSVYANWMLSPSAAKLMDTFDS
The experiment can be described thus: HTRF kinase activity test, RET wild type. The format is biochemical. The settings on record: Table 3; read-out: RET Enzyme (wild type) IC50. The protocol:
This test combined peptide substrates and a single proprietary monoclonal antibody with HTRF technology, which was a highly sensitive and stable technology for detecting molecular interactions of proteins. The enzyme phosphorylates the substrate, then the Eu-labeled antibody binds to the phosphorylated substrate, and streptavidin-XL665 binds to all substrates. The TR-FRET signal was generated by the HTRF principle. […] Based on this, the inhibitory effect was evaluated.
The other compounds were diluted 3-fold gradiently with DMSO from the 10 mM stock solution to a total of 10 concentrations respectively.
Adding 4 volumes of distilled water to 1 volume of enzyme buffer 5×; 5 mM MgCl2; 1 mM DTT.
b) centrifuging the compound plate for 1 minute at 1000 g.
c) sealing the test board.
f) adding 4 μl of 1× kinase buffer to each well of the test plate, centrifuging the sample plate at 1000 g for 30 seconds, and placing it at room temperature for 10 minutes.
g) preparing a solution of 5× TK-substrate-biotin ([…]) in kinase buffer and 5×ATP (50 μM) in kinase buffer respectively.
h) starting the reaction by adding 2 μl STK-substrate-biotin and 2 μl ATP (prepared in the step g).
i) centrifuging the sample plate for 30 seconds at 1000 g. Sealing the test board and placing it at room temperature for 30 minutes.
) centrifuging at 1000 g for 30 seconds and placing it at room temperature for 1 hour.
The inhibition rate % was calculated as follows:
Inhibition rate %=[1−(fluorescence signal value of test compound−fluorescence signal value of positive control)/(average ratio of negative control−average ratio of positive control)]*100%
Ratio: generated from the measured fluorescence signal value
The average ratio of the positive control is the average ratio of the positive control (200 nM AT13148) in the sample plate;
The average ratio of negative controls is the average ratio of negative controls (0.1% DMSO) in the sample plate.
GraphPad 6.0 was used to fit the logarithm of the % inhibition rate and the compound concentration into a nonlinear regression (dose response−variable slope) to calculate the IC50 value.
Background: TR-FRET usually uses a lanthanide donor and a delayed reading to cut background.
Take `Cc1nn2cc(-c3cnn(C)c3)cc(-c3ccc(N4CCN(C(=O)Cc5ccc(F)cn5)CC4)nc3)c2c1C#N` [APS071, 2-methyl-4-(6-(4-(2-(5-fluoropyridin-2-yl)acetyl)piperazin-1-yl)pyridin-3-yl)-6-(1-methyl-1H-pyrazol-4-yl)pyrazolo[1,5-a]pyridine-3-carbonitrile]: the IC50 amounted to 0.0646 µM.

For `Cc1nn2cc(-c3cnn(C)c3)cc(-c3ccc(N4CCC(Cc5ccccn5)CC4)nc3)c2c1C#N` [APS072, 2-methyl-6-(1-methyl-1H-pyrazol-4-yl)-4-(6-(4-(pyridin-2-yl-methyl)piperidin-1-yl)pyridine-3-yl)pyrazolo[1,5-a]pyridine-3-carbonitrile], the IC50 was found to be 0.0783 µM.

In the case of `COc1ccc(CN2CCN(c3ccc(-c4cc(-c5cnn(C)c5)cn5nc(O)c(C#N)c45)cn3)CC2)cn1` [APS083, 2-hydroxy-4-(6-(4-((6-methoxypyridin-3-yl)methyl)piperazin-1-yl)pyridin-3-yl)-6-(1-methyl-1H-pyrazol-4-yl)pyrazolo[1,5-a]pyridine-3-carbonitrile], the IC50 came to 0.212 µM.

For the compound `COc1ccc(CN2CCN(c3ccc(-c4cc(-c5cnn(C)c5)cn5nc(NC(C)=O)c(C#N)c45)cn3)CC2)cn1` [APS085, N-(3-cyano-4-(6-(4-((6-methoxypyridin-3-yl)methyl)piperazin-1-yl)pyridin-3-yl)-6-(1-methyl-1H-pyrazol-4-yl)pyrazolo[1,5-a]pyridin-2-yl)acetamide], the IC50 was 0.865 µM.

Turning to `CNc1nn2cc(-c3cnn(C)c3)cc(-c3ccc(N4CCN(Cc5ccc(OC)nc5)CC4)nc3)c2c1C#N` [APS086, 2-methylamino-4-(6-(4-((6-methoxypyridin-3-yl)methyl)piperazin-1-yl)pyridin-3-yl)-6-(1-methyl-1H-pyrazol-4-yl)pyrazolo[1,5-a]pyridine-3-carbonitrile], the IC50 was found to be 0.234 µM.

For the compound `CCOc1cc(-c2ccc(N3CC4CC(C3)N4Cc3cncc(Cl)c3)nc2)c2c(C#N)c(N)nn2c1` [APS112, 2-amino-4-(6-(6-((5-chloropyridin-3-yl)methyl)-3,6-diazabicyclo[3.1.1]heptan-3-yl)pyridine-3-yl)-6-ethoxypyrazolo[1,5-a]pyridine-3-carbonitrile], the IC50 was determined as 0.0189 µM.

The test system of the next experiment is TT Cell. The experiment can be described thus: Cell inhibitory activity test (CCK8). The format is cell-based. To be noted: Homo sapiens, TT, Table 3, 72 hours incubation. The protocol: Cell Inhibitory Activity Test
1. preparing 90 μl of cell suspension in a 96-well plate with 4000 cells/well. Pre-incubating the culture plate in an incubator for 24 hours (37° C., 5% CO2).
2. adding 10 μl of test compounds of different concentrations to each well of cells, and each compound has multiple wells.
3. incubating the culture plate in the incubator for 72 hours.
4. adding 10 μl of CCK8 solution to each well (be careful not to generate bubbles in the well, otherwise they would affect the reading of the OD value).
5. incubating the culture plate in the incubator for 1-2 hours.
6. measuring the absorbance at 450 nm with a microplate reader.
7. according to the compound concentration and absorbance value, GraphpadPrism software was used to calculate the IC50 of each compound.
Turning to `CCN(CC)C(=O)N1CCN(c2ccc(-c3cc(-c4cnn(C)c4)cn4nc(N)c(C#N)c34)cn2)CC1` [APS016, 4-(5-(2-amino-3-cyano-6-(1-methyl-1H-pyrazol-4-yl)pyrazolo[1,5-a]pyridin-4-yl)pyridine-2-yl)-N,N-diethylpiperazine-1-carboxamide], the IC50 worked out at 0.0311 µM.

`Cn1cc(-c2cc(-c3ccc(N4CCN(Cc5cncc(Cl)c5)CC4)nc3)c3c(C#N)c(N)nn3c2)cn1` [APS021] gave an IC50 of 0.12 µM.

`COc1cccc(CN2CCN(c3ccc(-c4cc(-c5cnn(C)c5)cn5nc(N)c(C#N)c45)cn3)CC2)n1` [APS030, 2-amino-4-(6-(4-((6-methoxypyridin-2-yl)methyl)piperazin-1-yl)pyridin-3-yl)-6-(1-methyl-1H-pyrazol-4-yl)pyrazolo[1,5-a]pyridine-3-carbonitrile] displayed an IC50 of 0.0576 µM.

Compound `CN(C)c1ccc(CN2CCN(c3ccc(-c4cc(-c5cnn(C)c5)cn5nc(N)c(C#N)c45)cn3)CC2)cc1` [APS034, 2-amino-4-(6-(4-(4-(dimethylamino)benzyl)piperazin-1-yl)pyridin-3-yl)-6-(1-methyl-1H-pyrazole-4-yl)pyrazolo[1,5-a]pyridine-3-carbonitrile] showed an IC50 of 0.0328 µM.

Consider `CN(C)c1ccc(CN2CCN(c3ccc(-c4cc(-c5cnn(C)c5)cn5nc(N)c(C#N)c45)cn3)CC2)cn1` [APS041, 2-amino-4-(6-(4-((6-(dimethylamino)pyridin-3-yl)methyl)piperazin-1-yl)pyridin-3-yl)-6-(1-methyl-1H-pyrazol-4-yl)pyrazolo[1,5-a]pyridine-3-carbonitrile], for which inhibition was half-maximal at 0.0328 µM (IC50).

In turn, `Cn1cc(-c2cc(-c3ccc(N4CCN(C(=O)c5c(F)cccc5F)CC4)nc3)c3c(C#N)c(N)nn3c2)cn1` [APS062, 2-amino-4-(6-(4-(2,6-difluorobenzoyl)piperazin-1-yl)pyridin-3-yl)-6-(1-methyl-1H-pyrazole-4-yl)pyrazolo[1,5-a]pyridine-3-carbonitrile] came in with an IC50 of 0.0341 µM.

The compound `Cn1cc(-c2cc(-c3ccc(N4CCN(Cc5cnccn5)CC4)nc3)c3c(C#N)c(N)nn3c2)cn1` [APS064, 2-amino-6-(1-methyl-1H-pyrazol-4-yl)-4-(6-(4-(pyrazin-2-yl-methyl)piperazin-1-yl)pyridine-3-yl)pyrazolo[1,5-a]pyridine-3-carbonitrile] displayed an IC50 of 0.15 µM.

In the case of `C[C@@H]1CN(c2ccc(-c3cc(-c4cnn(C)c4)cn4nc(N)c(C#N)c34)cn2)CCN1Cc1ccccn1` [APS073, (R)-2-amino-6-(1-methyl-1H-pyrazol-4-yl)-4-(6-(3-methyl-4-(pyridin-2-yl-methyl)piperazine-1-yl)pyridin-3-yl)pyrazolo[1,5-a]pyridine-3-carbonitrile], half-maximal inhibition (IC50) was put at 0.144 µM.

`Cn1cc(-c2cc(-c3ccc(N4CCN(Cc5ccccc5)CC4)nc3)c3c(C#N)c(N)nn3c2)cn1` [APS074, 2-amino-4-(6-(4-benzylpiperazin-1-yl)pyridin-3-yl)-6-(1-methyl-1H-pyrazol-4-yl)pyrazolo[1,5-a]pyridine-3-carbonitrile] gave an IC50 of 0.0252 µM.

The compound `Cn1cc(-c2cc(-c3ccc(N4CCN(Cc5cccnc5)CC4)nc3)c3c(C#N)c(N)nn3c2)cn1` [APS075, 2-amino-6-(1-methyl-1H-pyrazol-4-yl)-4-(6-(4-(pyridin-3-yl-methyl)piperazin-1-yl)pyridine-3-yl)pyrazolo[1,5-a]pyridine-3-carbonitrile] came in with an IC50 of 0.122 µM.

Turning to `C[C@@H]1CN(Cc2ccccn2)CCN1c1ccc(-c2cc(-c3cnn(C)c3)cn3nc(N)c(C#N)c23)cn1` [APS076, (R)-2-amino-6-(1-methyl-1H-pyrazol-4-yl)-4-(6-(2-methyl-4-(pyridin-2-yl-methyl)piperazine-1-yl)pyridin-3-yl)pyrazolo[1,5-a]pyridine-3-carbonitrile], the IC50 turned out to be 0.0964 µM.

The compound `Cn1cc(-c2cc(-c3ccc(N4CCN(Cc5ccc(F)cc5)CC4)nc3)c3c(C#N)c(N)nn3c2)cn1` [APS077, 2-amino-4-(6-(4-(4-fluorobenzyl)piperazin-1-yl)pyridin-3-yl)-6-(1-methyl-1H-pyrazol-4-yl) pyrazolo[1,5-a]pyridine-3-carbonitrile] came in with an IC50 of 0.0583 µM.

`Cn1cc(-c2cc(-c3ccc(N4CCN(Cc5ccncc5)CC4)nc3)c3c(C#N)c(N)nn3c2)cn1` [APS078, 2-amino-6-(1-methyl-1H-pyrazol-4-yl)-4-(6-(4-(pyridin-4-yl-methyl)piperazin-1-yl)pyridine-3-yl)pyrazolo[1,5-a]pyridine-3-carbonitrile] had an IC50 of 0.0571 µM.

`Cn1cc(-c2cc(-c3ccc(N4CCN(Cc5ccc(F)c(F)c5)CC4)nc3)c3c(C#N)c(N)nn3c2)cn1` [APS079, 2-amino-4-(6-(4-(3,4-difluorobenzyl)piperazin-1-yl)pyridin-3-yl)-6-(1-methyl-1H-pyrazole-4-yl)pyrazolo[1,5-a]pyridine-3-carbonitrile] returned an IC50 of 0.12 µM.

In turn, `COc1ccc(CN2CCN(c3ccc(-c4cc(-c5cnn(C)c5)cn5nc(F)c(C#N)c45)cn3)CC2)cn1` [APS084, 2-fluoro-4-(6-(4-((6-methoxypyridin-3-yl)methyl)piperazin-1-yl)pyridin-3-yl)-6-(1-methyl-1H-pyrazol-4-yl)pyrazolo[1,5-a]pyridine-3-carbonitrile] yielded an IC50 of 0.342 µM.

`COc1ccc(CN2C3CC2CN(c2cnc(-c4cc(OC[C@@H]5CNCCO5)cn5nc(F)c(C#N)c45)cn2)C3)cn1` [APS088, 2-fluoro-4-(5-(6-((6-methoxypyridin-3-yl)methyl)-3,6-diazabicyclo[3.1.1]heptan-3-yl)pyrazin-2-yl)-6-(((S)-morpholin-2-yl)methoxy)pyrazolo[1,5-a]pyridine-3-carbonitrile trifluoroacetate] displayed an IC50 of 0.265 µM.

On to `COc1ccc(CN2C3CC2CN(c2ccc(-c4cc(OCC(C)(C)OC)cn5nc(N)c(C#N)c45)cn2)C3)cn1` [APS110, 2-amino-6-(2-methoxy-2-methylpropoxy)-4-(6-(6-((6-methoxypyridin-3-yl)methyl)-3,6-diazabicyclo[3.1.1]heptan-3-yl)pyridin-3-yl)pyrazolo[1,5-a]pyridine-3-carbonitrile], for which it took 0.198 µM to reach half-maximal inhibition (IC50).

By IC50 is commonly meant the concentration needed to halve the response being measured.
